Data taken from publication PMC11768359, “2-Aminothiophene Derivatives—New Drug Candidates Against Leishmaniasis: Drug Design, Synthesis, Pharmacomodulation, and Antileishmanial Activity” (Pharmaceuticals, 2025).
“And” between values parts separate entries of the source, which are not always exact repeats. Equal values may be shown once. Read-outs that look alike come from different tables or passages of the source.

Key:
[1] = system: promastigotes of L. amazonensis; assay: Growth inhibition of promastigote forms of L. amazonensis (MTT); assay type: cell-based, Leishmania amazonensis; conditions: 72 h, 26 °C
Method: (§1) The in vitro tests utilized Leishmania amazonensis parasites (IFLA/BR/67/PH8). These leishmania cell lines were obtained from Oswaldo Cruz Foundation (FIOCRUZ)/Brazil. The promastigote forms were cultivated in Schneider’s insect medium at 26 °C in a biological oxygen demand (BOD) incubator. Schneider’s insect medium was supplemented with 20% fetal bovine serum (FBS) and 1% penicillin (100 U/mL) and streptomycin (µg/mL) (complete Schneider). Next, we differentiated them from promastigote forms by changing the conditions to Schneider’s insect medium supplemented with 5% FBS, pH 4.6, and a temperature of 32 °C to obtain axenic amastigote forms of L. amazonensis. Meanwhile, RAW 264.7 macrophages were cultured in […] cell culture flasks using DMEM medium supplemented with 10% FBS, 1% penicillin 100 U/mL, and 100 μg/mL streptomycin (complete DMEM) and incubated at 37 °C and 5% CO2.
(§2) Parasite growth inhibition was evaluated using the methodology described by Rodrigues et al. (2015). Cultures of logarithmically growing promastigote and axenic amastigote forms (1 × 10^6 parasites/mL) were incubated in 96-well plates containing 100 µL of supplemented Schneider’s medium in triplicate. Serial concentrations of 2-amino-thiophene and 2-amino-selenophene derivatives (10.00–0.156 μM) and the reference drugs meglumine antimoniate (500–40,000 μg/mL), amphoterecinB (0.1–2 μM), and pentamidine (3.12–100 µM) were added. BNP was used as a negative control. The cultures were incubated in a biological oxygen demand oven (model Eletrolab EL202, São Paulo, Brazil) at 26 °C for promastigotes and 32 °C for axenic amastigotes for 72 h. Then, 10 μL of MTT (5 mg/mL) was added to each well to colorimetrically evaluate growth inhibition. The plate was subsequently incubated for a further 4 h, followed by adding 50 μL of 10% sodium dodecyl sulfate solution for […] before the optical density of the culture was read on a microplate spectrophotometer reader. The reading was taken at the test and reference wavelengths of 540 and 620 nm using a microplate spectrophotometer. The negative control consisted of 0.2% […] with BNP, considered to be 100% viable.

[2] = system: axenic amastigotes of L. amazonensis; assay: Growth inhibition of axenic amastigote forms of L. amazonensis (MTT); assay type: cell-based, Leishmania amazonensis; conditions: 72 h, 32 °C
Method: as §1, §2

[3] = Cytotoxicity in macrophages (MTT); assay type: cell-based; conditions: mouse, RAW 264.7 macrophages
Method: as §1
First, 100 μL DMEM medium complete with 1 × 10^6 macrophages (RAW 264.7) was added to each well of a 96-well plate. RAW 264.7 macrophages were obtain from ATCC: code TIB-71^TM. The plate was placed in an incubator (37 °C, 5% CO2) (Sanyo, model COM-15A, Sanyo Electric Co., Osaka, Japan) for 4 h to promote cell adhesion. After this period, two washes were conducted with previously heated DMEM medium (37 °C) to remove non-adhered cells. 2-amino-thiophene and 2-amino-selenophene derivatives were added to wells at serial concentrations of 400 to 25 µM and then incubated for 48 h. Next, 10 μL of MTT at a […] of 5 mg/mL were added to each well and incubated for 4 h. The plate was then shaken for 30 min and read at the test and reference wavelengths of 550 and 620 nm, respectively, in a plate reader. DMEM medium supplemented with 0.5% DMSO was used as a negative control and considered as 100% macrophage viability. The selectivity index for each treatment was calculated as the ratio between the concentration of cytotoxicity of RAW 264.7 macrophages (CC50) and the 50% inhibitory concentration (IC50) or effective concentration (EC50), as measured for the different evolutionary forms of L. amazonensis.

[4] = system: promastigotes of L. amazonensis; conditions: cited from earlier work
[5] = system: axenic amastigotes of L. amazonensis; conditions: cited from earlier work; for EC50: read-out: EC50 against amastigotes
RAW 264.7 macrophages = conditions: previously published; cited from earlier work
[6] = L. amazonensis promastigotes, previously published, read-out: IC50 Promastigotes
[7] = L. amazonensis axenic amastigotes, previously published, read-out: IC50 Amastigotes
[8] = L. amazonensis amastigotes, previously published, read-out: IC50 Amastigotes

COc1ccc2[nH]cc(/C=N/c3[se]c4c(c3C#N)CCCC4)c2c1 [Compound 40]
IC50 Promastigotes [1]: not active up to the highest concentration evaluated
IC50 ([1]; Leishmania amazonensis): > 10 µM

CC1CCc2c(sc(N)c2C#N)C1 (stereo not drawn) [Compound 13]
IC50 ([1]; Leishmania amazonensis): > 10 µM
IC50 ([2]; Leishmania amazonensis): > 10 µM

N#Cc1c(/N=C/c2c[nH]c3ccc(Br)cc23)[se]c2c1CCCC2 [Compound 38]
IC50 [1]: 3.49 µM
IC50 ([1]; Leishmania amazonensis): < 3.5 µM
CC50 at 48 h [3]: 239 µM

CC(C)(C)OC(=O)N1CCc2c(sc(/N=C/c3c[nH]c4ccc(Br)cc34)c2C#N)C1 [Compound 31]
IC50 ([1]; Leishmania amazonensis): > 10 µM
IC50 ([2]; Leishmania amazonensis): > 10 µM

Cc1cc(C#N)c(/N=C/c2c[nH]c3ccc(Br)cc23)s1 [Compound 24]
IC50 ([1]; Leishmania amazonensis): > 10 µM
IC50 ([2]; Leishmania amazonensis): > 10 µM

N#Cc1c(/N=C/c2c[nH]c3ccc(Br)cc23)sc2c1CCNC2 [Compound 30]
IC50 [4, 6]: > 10 µM
IC50 [5, 7]: > 10 µM

CC(C)(C)OC(=O)N1CCc2c(sc(N)c2C(N)=O)C1 [Compound 19]
IC50 ([1]; Leishmania amazonensis): 9.35 µM
IC50 ([2]; Leishmania amazonensis): > 10 µM
CC50 at 48 h [3]: 310 µM
IC50 ([4]; L. amazonensis, read-out: IC50 against promastigotes): 2.1 µM and 2.16 µM
IC50 ([5]; L. amazonensis, read-out: IC50 against axenic amastigotes): 0.9 µM

N#Cc1c(/N=C/c2c[nH]c3ccc(Br)cc23)sc2c1CCCCC2 [SB-200]
IC50 [4, 6]: 3.6 µM and 3.65 µM
IC50 [5, 8]: 20 µM and 20.1 µM
EC50 ([5]; L. amazonensis amastigotes): 20.1 µM
CC50 (RAW 264.7 macrophages): 32 µM

N#Cc1c(/N=C/c2c[nH]c3cccc(Br)c23)[se]c2c1CCCC2 [Compound 37]
IC50 ([1]; Leishmania amazonensis): 4.5 µM
CC50 at 48 h [3]: 242 µM

N#Cc1c(/N=C/c2c[nH]c3ccc(Br)cc23)sc2c1CCCCCC2 [Compound 8CN83]
IC50 [4, 6]: 4.7 µM and 4.75 µM
IC50 [5, 7]: 3.8 µM
CC50 (RAW 264.7 macrophages): > 100 µM

N#Cc1c(/N=C/c2c[nH]c3ccc(Br)cc23)sc2c1CCCCCCCCCC2 [Compound 26]
IC50 Promastigotes ([4]; L. amazonensis promastigotes, previously published): inactive against the two evolutionary forms
IC50 [4, 6]: > 10 µM
IC50 Amastigotes ([5]; L. amazonensis axenic amastigotes, previously published): inactive against the two evolutionary forms
IC50 [5, 7]: > 10 µM

CCCC1CCc2c(sc(/N=C/c3c[nH]c4ccc(Br)cc34)c2C#N)C1 (stereo not drawn) [Compound 28]
IC50 [1]: 8.12 µM
IC50 ([1]; Leishmania amazonensis): < 10 µM
IC50 ([2]; Leishmania amazonensis): > 10 µM

N#Cc1c(/N=C/c2c[nH]c3ccccc23)sc2c1CCCCC2 [SB-44, reference compound]
IC50 [4, 6]: 7.3 µM and 7.37 µM
IC50 [5, 8]: 15.8 µM
EC50 ([5]; L. amazonensis amastigotes): 15.8 µM

N#Cc1c(N)sc2c1CCN(Cc1ccccc1)C2 [Compound 18]
IC50 Promastigotes [1]: inactive compound
IC50 ([1]; Leishmania amazonensis): > 10 µM
IC50 ([2]; Leishmania amazonensis): > 10 µM

Cc1ccc2[nH]cc(/C=N/c3[se]c4c(c3C#N)CCCC4)c2c1 [Compound 35]
IC50 Promastigotes [1]: not active up to the highest concentration evaluated
IC50 ([1]; Leishmania amazonensis): > 10 µM

N#Cc1c(/N=C/c2c[nH]c3cccc([N+](=O)[O-])c23)[se]c2c1CCCC2 [Compound 34]
IC50 [1]: 2.14 µM
IC50 ([1]; Leishmania amazonensis): < 3.5 µM
CC50 at 48 h [3]: 189 µM

CCC1CCc2c(sc(N)c2C#N)C1 (stereo not drawn) [Compound 14]
IC50 ([1]; Leishmania amazonensis): > 10 µM
IC50 ([2]; Leishmania amazonensis): > 10 µM

CCOC(=O)c1c(N)sc2c1CCCCC2 [Compound 11]
IC50 ([1]; Leishmania amazonensis): > 10 µM

N#Cc1ccc2[nH]cc(/C=N/c3[se]c4c(c3C#N)CCCC4)c2c1 [Compound 33]
IC50 ([1]; Leishmania amazonensis): 9.32 µM
CC50 at 48 h [3]: 203 µM

Cc1cc(C#N)c(N)s1 [Compound 1]
IC50 ([1]; Leishmania amazonensis): > 10 µM
IC50 ([2]; Leishmania amazonensis): > 10 µM

CCCC1CCc2c(sc(N)c2C#N)C1 (stereo not drawn) [Compound 15]
IC50 [1]: 9.2 µM
IC50 ([1]; Leishmania amazonensis): < 10 µM
IC50 [2]: 9.3 µM
IC50 ([2]; Leishmania amazonensis): < 10 µM

N#Cc1c(N)sc2c1CCCC2 [Compound 5]
IC50 [4, 6]: > 10 µM

NC(=O)c1ccsc1N [Compound 2]
IC50 [1]: > 10 µM
IC50 ([1]; Leishmania amazonensis): ≥ 10 µM
IC50 ([2]; Leishmania amazonensis): > 10 µM

CCOC(=O)c1ccsc1N [Compound 3]
IC50 [1]: > 10 µM
IC50 ([1]; Leishmania amazonensis): ≥ 10 µM
IC50 ([2]; Leishmania amazonensis): > 10 µM
